From publication PMC8777785, “Antimicrobial Activity of Snake β-Defensins and Derived Peptides” (Toxins, 2021)

Columns and labels:
Experiment in all cases: Microbroth dilution assay, MIC
Assay type in all cases: cell-based
Settings in all cases: snake β-defensins, linear (alkylated) except native crotamine, 10% TSB, 4 × 10^5 CFU/mL, 512 to 1 µg/mL, overnight 37 °C, read at 600 nm, three independent experiments
[1] = system: Escherichia coli ATCC 25922
Description: (§1) The β-defensins were tested using a microbroth dilution assay. It consists of incubating the bacteria (4.105 colony-forming unit—CFU/mL) and the peptide (from 1 to 512 µg/mL) in liquid broth. After the incubation at 37 °C during the night, the bacterial growth was detected by spectrophotometry at 600 nm. If the measure is similar to the broth, it […]. […] The β-defensins were tested against B. jararaca oral flora because it would be of biological and medical interest. In addition, we tested on E. coli ATCC 25922 and M. luteus that are common Gram-negative and Gram-positive bacteria used in antibacterial tests.
(§2) The antibacterial activity of the alkylated peptides was tested against Gram-negative (G−) bacteria (Klebsiella pneumonia, Serratia marcescens, Morganella morganii, Providencia rettgeri, Citrobacter freundii, Escherichia coli ATCC 25922 and Gram-positive (G+) bacteria (Micrococcus luteus A270 and Staphylococcus aureus) using microbroth assay. In a 96-well plate, 90 µL of 10% tryptone soy broth (TSB) with 4 × 10^5 colony-forming unit (CFU/mL) were mixed with serial twofold dilutions of β-defensins duplicate in concentrations from 512 to 1 µg/mL. The derived peptides coded as PS1, PS2, PS3, PS5, and PS6 (Table 1) were tested against these bacteria in serial twofold dilutions with concentrations bellow 700 µg/mL. After overnight incubation at 37 °C, the turbidity of the bacterial culture was read at 600 nm (Epoch microplate reader, Biotek). The minimal inhibitory concentration (MIC) of each peptide was determined as the lowest concentration that results in no visible bacterial growth. The MIC resulted from three independent experiments. The bacteria K. pneumonia, S. marcescens, M. morganii, P. rettgeri, C. freundii, M. luteus A270 and S. aureus were isolated from Bothrops jararaca buccal flora and kindly provided by Dr. Márcia R. Franzolin (Laboratory of Bacteriology—Instituto Butantan). M. luteus was kindly provided by Dr. Pedro I. da Silva Jr. (Laboratory of Applied Toxinology—Instituto Butantan).

[2] = system: Micrococcus luteus A270
Description: as §1, §2

[3] = system: Staphylococcus aureus
Description: as §1, §2

[4] = system: Citrobacter freundii
Description: as §1, §2

| Substance | MIC, E. coli [1] | MIC, M. luteus [2] | MIC, S. aureus [3] | MIC, C. freundii [4] |
| --- | --- | --- | --- | --- |
| Crotamine | 13.3 µM | 1.7 µM | >105 µM | 6.7 µM |
| DPVTCLKSGAICHPVFCPRRYKQIGTCGLPGTKCCKKP [hBd02, synthetic human β-defensin, GenBank AF071216, reference compound] | 15.6 µM | 2 µM | >124 µM | >124 µM |
| QDLCHNLGGRCFRNRCSWSLRNHGGQDCPWGSVCCKP [DefbTs, synthetic β-defensin deduced from T. strigatus gene, GenBank KX664429] | >122 µM | 15.3 µM | >122 µM | >122 µM |
| QEECLQQGGFCRLIRCPFGYDSLEQQDCRKGQRCCIRKPRK [DefbBj01, synthetic β-defensin deduced from B. jararaca gene, GenBank KC117163] | >105 µM | 3.2 µM | >105 µM | >105 µM |
| QEWCRGLGGFCSFYQCRPGHDLGPQDCWPERRCCRWGK [DefbLm01, synthetic β-defensin deduced from L. muta gene, GenBank KC117171] | >113 µM | 28.4 µM | >113 µM | >113 µM |
| QGQCHQQRGRCFLHQCPLSHYFLGRLDCGPGRRCCRRRK [DefbLm02, synthetic β-defensin deduced from L. muta gene, GenBank KC117172] | 3.4 µM | 0.9 µM | 6.8 µM | 3.4 µM |
| QPECCQEGGICHSKQCPLGYSSLGRLDCQLGQRCCIRIFGK [DefbBn02, synthetic β-defensin deduced from B. neuwiedi gene, GenBank KC117169] | >113 µM | >113 µM | >113 µM | >113 µM |
| QPECLRQGGMCRPRLCPYVSLGQLDCQNGHVCCRKKPRK [DefbBd03, synthetic β-defensin deduced from B. diporus gene, GenBank KC117160] | >115 µM | 0.9 µM | >115 µM | >115 µM |
| QPQCRWLDGFCHSSPCPSGTTSIGQQDCLWYESCCIPRYEK [Crotasin, synthetic β-defensin deduced from C. durissus gene, GenBank AF250212] | >108 µM | >108 µM | >108 µM | >108 µM |
| QRICLGGRGFCHSTPCPRSTIDYGKKDCWGSLRCCEPKRPGK [DefbPm, synthetic β-defensin deduced from P. mertensis gene, GenBank KX664436] | >109 µM | 6.8 µM | >109 µM | >109 µM |
| QRRCHQKGGMCLPGPCPPGYDSLGQQDCRRGQKCCIKRFGK [DefbBju01, synthetic β-defensin deduced from B. jararacussu gene, GenBank KC117165] | >111 µM | >111 µM | >111 µM | >111 µM |
| QRRCRQRRGICRPRPCPPENFSLGRLDCQMGQMCCRRRFGK [DefbBm03, synthetic β-defensin deduced from B. mattogrossensis gene, GenBank KC117168] | 1.6 µM | 1.6 µM | >103 µM | 3.2 µM |
| QRRCRQRRGICRPRPCPPENFSLGRLDCQMGRMCCRRRFGK [DefbBm02, synthetic β-defensin deduced from B. mattogrossensis gene, GenBank KC117167] | 3.2 µM | 0.8 µM | 12.8 µM | 1.6 µM |
